Assay results from paper PMC10193966, “Structure of WNT inhibitor adenomatosis polyposis coli down-regulated 1 (APCDD1), a cell-surface lipid-binding protein” (Proceedings of the National Academy of Sciences of the …, 2023).

Target: T1, eMBP-APCDD1 (APCDD1 ECD; lipid in ABD2) (Mus musculus, UniProt Q3U128)
T1 construct: extracellular domain residues 47-481, N-terminal engineered MBP fusion, C-terminal 8xHis; secreted from HEK293T (kifunensine); Endo-F1 and carboxypeptidase A/B treated in situ; single-span membrane protein without TM
Experiment: X-ray crystal structure ([…] Å); HPLC/MS of extract from purified APCDD1
Format: binding
Conditions: co-purified lipid from HEK293 expression with 2% serum; ABD2 hydrophobic pocket, chains A and C; MS sample named only purified APCDD1

T1 sequence (Q3U128 47-481): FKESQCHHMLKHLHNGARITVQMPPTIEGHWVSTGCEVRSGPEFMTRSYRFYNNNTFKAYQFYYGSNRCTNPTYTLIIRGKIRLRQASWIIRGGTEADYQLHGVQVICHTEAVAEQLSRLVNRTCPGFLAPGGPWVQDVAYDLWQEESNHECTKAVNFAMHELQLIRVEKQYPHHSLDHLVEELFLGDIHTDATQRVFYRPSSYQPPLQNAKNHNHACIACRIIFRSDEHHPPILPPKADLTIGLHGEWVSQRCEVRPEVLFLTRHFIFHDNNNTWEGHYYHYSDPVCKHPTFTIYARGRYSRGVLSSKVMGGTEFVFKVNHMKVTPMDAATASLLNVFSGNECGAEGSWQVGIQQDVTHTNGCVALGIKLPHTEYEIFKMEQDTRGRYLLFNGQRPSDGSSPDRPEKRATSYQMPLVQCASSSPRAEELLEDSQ

CCCCCCCCCCCCCCCCCC(=O)O [stearic acid]
X-ray crystal structure (2.3 Å); HPLC/MS of extract from purified APCDD1: This analysis revealed stearic acid, a C18 fatty acid
